In US20200179312A1, “ANALOGUES OF CYSTEAMINE AS THERAPEUTIC AGENTS FOR CYSTIC FIBROSIS” (I.E.R.F.C. EUROPEAN INSTITUTE FOR CYSTIC FIBROSIS RESEARCH, priority 2018, published 2020):

Molecular target: CFTR (Homo sapiens, UniProt P13569, DEL508-508)
Experiment: Immunoblot detection of CFTR in nasal primary cells
Type: cell-based
Set-up: Freshly isolated brushed nasal epithelial cells were collected by nasal brushing; endogenous in cells; host or cells: primary nasal epithelial cells from F508del-homozygous CF patients
Description: Freshly isolated brushed nasal epithelial cells were collected by nasal brushing, as previously described (21, 21) from 10 F508del-CFTR homozygous CF patients and from 5 non-CF healthy volunteers recruited from staff at the same time points. Both patients and healthy volunteers gave written informed consent. […] Brushes with cells were immediately transferred into RPMI 1640 medium (Invitrogen) containing 1% penicillin-streptomycin (Lonza, 17-602E), in 15-ml sterilized tubes. The tubes were incubated at 37° C. for 2 h on a thermo shaker, to remove all cell from brushes; the brushes were then removed and the cells centrifuged at 800×g (2000 rpm) for 20 min. The supernatant fractions were discarded and the cell pellet treated with […] of trypsin-versene (EDTA) solution (Lonza, 17-161) for 4 min at 37° C. to disaggregate possible cell clusters. Trypsin solution was inactivated by adding 3 ml of serum-free Bronchial Epithelial cell Growth Medium BEGM (Clonetics, Lonza, CC3170). After centrifugation at 800×g (2000 rpm) for 10 min, cells were placed in CELLC T 25 flasks (Sarstedt Ltd, CS300) with 10 ml of BEGM medium. Nonspecific epithelial cells were removed during the daily cell washing and medium changes.
The proteins of cell lines lysates or lung or small intestine homogenates, obtained from treated and untreated cells or mice, were quantified by a Bio-Rad protein assay to ensure equal protein loading before immunoblot analysis. Fifty micrograms of proteins were loaded in each lane. Antibodies against SQSTM1, (Sigma Aldrich,P0067) 1:1000, BECN1 (Abcam, ab58878), 1:1000, CFTR clone CF3 (Abcam, ab2784) 1:1000 or anti-CFTR antibody 660 1:1000, Phospho-p44/42 MAPK (Erk1/2) (Thr202/Tyr204) (Cell Signaling Technology, #91101) 1:1000, TG2 (CUB7402, NEOMARKER) 1:1000 were used. Normalization was performed by probing the membrane with anti-β-actin (Cell Signaling, #4970) 1:1000 or anti-α-tubulin (Cell Signaling Technology, 2148) 1:1000.

Sequence of CFTR (P13569 with tags, fused parts or gaps DEL508-508): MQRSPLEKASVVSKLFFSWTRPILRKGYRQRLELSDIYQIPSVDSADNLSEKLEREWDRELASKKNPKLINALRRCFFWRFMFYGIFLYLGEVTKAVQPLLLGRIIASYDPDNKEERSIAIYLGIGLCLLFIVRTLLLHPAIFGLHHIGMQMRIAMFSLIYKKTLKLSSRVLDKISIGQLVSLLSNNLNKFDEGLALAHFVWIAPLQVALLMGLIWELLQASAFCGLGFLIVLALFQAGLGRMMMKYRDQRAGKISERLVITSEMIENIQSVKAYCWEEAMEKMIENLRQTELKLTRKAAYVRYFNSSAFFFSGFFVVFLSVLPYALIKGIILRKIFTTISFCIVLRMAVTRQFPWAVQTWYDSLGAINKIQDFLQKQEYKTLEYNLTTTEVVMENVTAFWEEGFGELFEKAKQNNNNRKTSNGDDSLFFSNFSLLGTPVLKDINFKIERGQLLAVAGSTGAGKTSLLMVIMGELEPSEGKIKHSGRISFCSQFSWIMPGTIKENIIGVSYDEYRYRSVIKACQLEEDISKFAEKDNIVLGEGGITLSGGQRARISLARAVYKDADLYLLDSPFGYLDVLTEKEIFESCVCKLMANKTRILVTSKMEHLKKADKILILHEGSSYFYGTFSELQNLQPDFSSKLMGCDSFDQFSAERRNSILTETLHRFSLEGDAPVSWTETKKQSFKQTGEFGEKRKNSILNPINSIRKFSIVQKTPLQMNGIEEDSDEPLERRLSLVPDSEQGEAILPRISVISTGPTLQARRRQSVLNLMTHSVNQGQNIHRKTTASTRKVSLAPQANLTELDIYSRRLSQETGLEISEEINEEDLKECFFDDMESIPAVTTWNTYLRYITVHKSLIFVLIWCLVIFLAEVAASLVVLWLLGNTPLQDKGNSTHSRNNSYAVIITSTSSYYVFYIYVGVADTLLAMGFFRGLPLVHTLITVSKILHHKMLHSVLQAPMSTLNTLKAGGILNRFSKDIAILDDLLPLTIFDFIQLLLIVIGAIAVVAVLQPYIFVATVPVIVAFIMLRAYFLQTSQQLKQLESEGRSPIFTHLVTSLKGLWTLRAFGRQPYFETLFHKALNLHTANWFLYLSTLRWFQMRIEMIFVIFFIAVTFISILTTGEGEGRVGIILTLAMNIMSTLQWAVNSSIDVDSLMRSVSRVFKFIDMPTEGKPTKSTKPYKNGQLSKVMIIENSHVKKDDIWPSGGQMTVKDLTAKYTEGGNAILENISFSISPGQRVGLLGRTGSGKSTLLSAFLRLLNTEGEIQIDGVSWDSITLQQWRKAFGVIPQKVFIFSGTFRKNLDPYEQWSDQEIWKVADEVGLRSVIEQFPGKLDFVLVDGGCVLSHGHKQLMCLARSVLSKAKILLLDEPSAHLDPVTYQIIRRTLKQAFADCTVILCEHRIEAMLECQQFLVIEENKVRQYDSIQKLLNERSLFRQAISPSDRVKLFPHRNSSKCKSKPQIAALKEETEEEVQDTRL

NCCCS [IE1, 3-aminopropane-1-thiol]
PM-resident CFTR protein (0.1 μM): a sizeable fraction of the channel resided at the PM
PM-resident CFTR protein after washout (0.1 μM, 24 h of washout): maintained
PM-resident CFTR protein after washout (48 h of washout): decreases
PM-resident CFTR protein after washout with EGCG added (48 h of washout, EGCG added): completely maintained
